From the CheMixHub viscosity set
± gives the uncertainty stated by the source.

Assay: xn = mol fraction of the nth substance listed

What does the source list for CCCC[P+](CC)(CC)CC.N#Cc1ccc[n-]1 + OCCN(CCO)CCO?
viscosity (293.15 K, 100 kPa, x1 = 0.018): 956 ± 140 mPa·s; viscosity (293.15 K, 100 kPa, x1 = 0.089): 975 ± 150 mPa·s; viscosity (293.15 K, 100 kPa, x1 = 0.104): 937 ± 140 mPa·s; viscosity (293.15 K, 100 kPa, x1 = 0.223): 809 ± 120 mPa·s; viscosity (293.15 K, 100 kPa, x1 = 0.413): 679 ± 100 mPa·s

Which viscosity (293.15 K, 101 kPa, x2 = 0.35) does the source give for CCCCOC(=O)c1ccccc1C(=O)OCCCC + Oc1cccc(O)c1 here?
Its viscosity is 69.1 ± 2.8 mPa·s.

For [2H]O[2H] + [Br-].[K+], which viscosity (298.15 K, 101 kPa, x2 = 0.012) is on record?
The viscosity was 1.086 ± 0.009 mPa·s.

What about the viscosity (298.15 K, 101 kPa, x2 = 0.0375) of the same compound?
Its viscosity is 1.046 ± 0.009 mPa·s.

What about the viscosity (298.15 K, 101 kPa, x2 = 0.056) of the same compound?
The viscosity was 1.024 ± 0.008 mPa·s.

What about the viscosity (298.15 K, 101 kPa, x2 = 0.067) of the same compound?
Its viscosity is 1.018 ± 0.008 mPa·s.

What about the viscosity (298.15 K, 101 kPa, x2 = 0.073) of the same compound?
The viscosity was 1.03 ± 0.009 mPa·s.

And the viscosity (298.15 K, 101 kPa, x2 = 0.081)?
The viscosity was 1.047 ± 0.009 mPa·s.

And the viscosity (308.15 K, 101 kPa, x2 = 0.012)?
The viscosity was 0.854 ± 0.007 mPa·s.

What about the viscosity (308.15 K, 101 kPa, x2 = 0.0375) of the same compound?
Its viscosity is 0.856 ± 0.007 mPa·s.

And the viscosity (308.15 K, 101 kPa, x2 = 0.056)?
The viscosity was 0.853 ± 0.007 mPa·s.

And the viscosity (308.15 K, 101 kPa, x2 = 0.067)?
Its viscosity is 0.85 ± 0.007 mPa·s.

What about the viscosity (308.15 K, 101 kPa, x2 = 0.073) of the same compound?
Its viscosity is 0.868 ± 0.007 mPa·s.

What about the viscosity (308.15 K, 101 kPa, x2 = 0.081) of the same compound?
Its viscosity is 0.884 ± 0.007 mPa·s.

What about the viscosity (318.15 K, 101 kPa, x2 = 0.012) of the same compound?
The viscosity was 0.715 ± 0.006 mPa·s.

And the viscosity (318.15 K, 101 kPa, x2 = 0.0375)?
The viscosity was 0.725 ± 0.006 mPa·s.

What about the viscosity (318.15 K, 101 kPa, x2 = 0.056) of the same compound?
The viscosity was 0.732 ± 0.006 mPa·s.

And the viscosity (318.15 K, 101 kPa, x2 = 0.067)?
The viscosity was 0.739 ± 0.006 mPa·s.

And the viscosity (318.15 K, 101 kPa, x2 = 0.073)?
The viscosity was 0.754 ± 0.006 mPa·s.

What about the viscosity (318.15 K, 101 kPa, x2 = 0.081) of the same compound?
The viscosity was 0.767 ± 0.007 mPa·s.

With [2H]O[2H] + [Cl-].[K+] as the compound, how does the viscosity (298.15 K, 101 kPa, x2 = 0.005) read?
The viscosity was 1.095 ± 0.009 mPa·s.

What about the viscosity (298.15 K, 101 kPa, x2 = 0.01) of the same compound?
Its viscosity is 1.08 ± 0.009 mPa·s.

And the viscosity (298.15 K, 101 kPa, x2 = 0.022)?
The viscosity was 1.076 ± 0.009 mPa·s.

And the viscosity (298.15 K, 101 kPa, x2 = 0.04)?
The viscosity was 1.089 ± 0.009 mPa·s.

What about the viscosity (298.15 K, 101 kPa, x2 = 0.064) of the same compound?
The viscosity was 1.101 ± 0.009 mPa·s.

And the viscosity (308.15 K, 101 kPa, x2 = 0.005)?
Its viscosity is 0.868 ± 0.007 mPa·s.

And the viscosity (308.15 K, 101 kPa, x2 = 0.01)?
The viscosity was 0.859 ± 0.007 mPa·s.

And the viscosity (308.15 K, 101 kPa, x2 = 0.022)?
The viscosity was 0.871 ± 0.007 mPa·s.

What about the viscosity (308.15 K, 101 kPa, x2 = 0.04) of the same compound?
The viscosity was 0.889 ± 0.008 mPa·s.

What about the viscosity (308.15 K, 101 kPa, x2 = 0.064) of the same compound?
Its viscosity is 0.912 ± 0.008 mPa·s.

And the viscosity (318.15 K, 101 kPa, x2 = 0.005)?
The viscosity was 0.714 ± 0.006 mPa·s.

And the viscosity (318.15 K, 101 kPa, x2 = 0.01)?
The viscosity was 0.709 ± 0.006 mPa·s.

What about the viscosity (318.15 K, 101 kPa, x2 = 0.022) of the same compound?
Its viscosity is 0.732 ± 0.006 mPa·s.

And the viscosity (318.15 K, 101 kPa, x2 = 0.04)?
The viscosity was 0.755 ± 0.006 mPa·s.

What about the viscosity (318.15 K, 101 kPa, x2 = 0.064) of the same compound?
Its viscosity is 0.784 ± 0.007 mPa·s.

What does the source list for [2H]O[2H] + [Cl-].[Li+]?
viscosity (298.15 K, 101 kPa, x2 = 0.076): 1.712 ± 0.016 mPa·s; viscosity (298.15 K, 101 kPa, x2 = 0.141): 3.692 ± 0.031 mPa·s; viscosity (298.15 K, 101 kPa, x2 = 0.215): 8.914 ± 0.069 mPa·s; viscosity (308.15 K, 101 kPa, x2 = 0.024): 1.039 ± 0.009 mPa·s; viscosity (308.15 K, 101 kPa, x2 = 0.076): 1.351 ± 0.011 mPa·s; viscosity (308.15 K, 101 kPa, x2 = 0.141): 3.018 ± 0.024 mPa·s; viscosity (308.15 K, 101 kPa, x2 = 0.215): 6.744 ± 0.055 mPa·s; viscosity (318.15 K, 101 kPa, x2 = 0.024): 0.854 ± 0.007 mPa·s; viscosity (318.15 K, 101 kPa, x2 = 0.076): 1.112 ± 0.009 mPa·s; viscosity (318.15 K, 101 kPa, x2 = 0.141): 2.397 ± 0.019 mPa·s; viscosity (318.15 K, 101 kPa, x2 = 0.197): 4.216 ± 0.034 mPa·s; viscosity (318.15 K, 101 kPa, x2 = 0.215): 5.422 ± 0.045 mPa·s

What does the source list for C=CC#N + c1ccccc1?
viscosity (307.4 K, 101.33 kPa, x2 = 0.0966): 0.494 ± 0.004 mPa·s; viscosity (307.4 K, 101.33 kPa, x2 = 0.2512): 0.448 ± 0.004 mPa·s; viscosity (307.4 K, 101.33 kPa, x2 = 0.4788): 0.395 ± 0.004 mPa·s; viscosity (307.4 K, 101.33 kPa, x2 = 0.5188): 0.386 ± 0.003 mPa·s; viscosity (307.4 K, 101.33 kPa, x2 = 0.6633): 0.357 ± 0.003 mPa·s; viscosity (307.4 K, 101.33 kPa, x2 = 0.8844): 0.32 ± 0.003 mPa·s

With CC1CCC(O)CC1 (stereo not drawn) + c1ccccc1 as the compound, how does the viscosity (293.15 K, 101 kPa, x2 = 0.33) read?
Its viscosity is 5.3 ± 0.2 mPa·s.

And the viscosity (293.15 K, 101 kPa, x2 = 0.5)?
The viscosity was 2.4 ± 0.1 mPa·s.

And the viscosity (293.15 K, 101 kPa, x2 = 0.6)?
The viscosity was 1.8 ± 0.1 mPa·s.

And the viscosity (293.15 K, 101 kPa, x2 = 0.667)?
Its viscosity is 1.6 ± 0.1 mPa·s.

What about the viscosity (293.15 K, 101 kPa, x2 = 0.75) of the same compound?
The viscosity was 1.4 ± 0.1 mPa·s.

And the viscosity (293.15 K, 101 kPa, x2 = 0.8)?
Its viscosity is 1.3 ± 0.1 mPa·s.
